This test has as its system MV-4-11 cells. In words: Gene expression microarray analysis (Affymetrix PrimeView) and GSEA. Type of test: cell-based, human. Set-up: RFU PODN (11730768_x_at) / Fold change /veh PODN (11730768_x_at) / RFU LINC00158 (11744669_a_at) / Fold change /veh LINC00158 (11744669_a_at) / RFU DUSP10 (11751237_a_at) / Fold change /veh DUSP10 (11751237_a_at) / RFU ID3 (11757404_x_at) / Fold change /veh ID3 (11757404_x_at) / RFU PLEKHG5 (11737974_s_at) / Fold change /veh PLEKHG5 (11737974_s_at) / RFU LRRC4B (11730491_at) / Fold change /veh LRRC4B (11730491_at) / RFU GIMAP4 (11747438_a_at) / Fold change /veh GIMAP4 (11747438_a_at) / RFU KRT8 (11758183_x_at) / Fold change /veh KRT8 (11758183_x_at) / RFU CNN1 (11734310_a_at) / Fold change /veh CNN1 (11734310_a_at) / RFU VPS37D (11726825_at) / Fold change /veh VPS37D (11726825_at) / RFU C10orf10 (11716522_x_at) / Fold change /veh C10orf10 (11716522_x_at) / RFU KIR2DL2 /// KIR2DL4 /// KIR2DL5A /// KIR2DL5B /// KIR2DS1 /// KIR2DS2 /// KIR2DS3 /// KIR2DS4 /// KIR3DL3 /// KIR3DL3 /// KIR3DS1 (11738374_at) / Fold change /veh KIR2DL2 /// KIR2DL4 /// KIR2DL5A /// KIR2DL5B /// KIR2DS1 /// KIR2DS2 /// KIR2DS3 /// KIR2DS4 /// KIR3DL3 /// KIR3DL3 /// KIR3DS1 (11738374_at) / RFU C1QL1 (11718748_at) / Fold change /veh C1QL1 (11718748_at) / RFU TMPRSS4 (11747572_a_at) / Fold change /veh TMPRSS4 (11747572_a_at) / RFU HAMP (11756126_x_at) / Fold change /veh HAMP (11756126_x_at) / RFU RNFT2 (11725882_a_at) / Fold change /veh RNFT2 (11725882_a_at) / RFU NR4A2 (11747474_a_at) / Fold change /veh NR4A2 (11747474_a_at) / RFU ABCC12 (11746883_a_at) / Fold change /veh ABCC12 (11746883_a_at) / RFU TMEM136 (11760407_x_at) / Fold change /veh TMEM136 (11760407_x_at) / RFU CLDN22 /// WWC2 (11732394_at) / Fold change /veh CLDN22 /// WWC2 (11732394_at) / RFU HLA-DPB1 (11760878_x_at) / Fold change /veh HLA-DPB1 (11760878_x_at) / RFU SPINT1 (11716480_a_at) / Fold change /veh SPINT1 (11716480_a_at) / RFU GAP43 (11754022_s_at) / Fold change /veh GAP43 (11754022_s_at) / RFU A4GNT (11735810_at) / Fold change /veh A4GNT (11735810_at) / RFU PRB3 (11715151_x_at) / Fold change /veh PRB3 (11715151_x_at) / RFU TUBB4B (11761932_at) / Fold change /veh TUBB4B (11761932_at) / RFU CAPN14 (11732068_a_at) / Fold change /veh CAPN14 (11732068_a_at) / RFU TMCC2 (11721928_a_at) / Fold change /veh TMCC2 (11721928_a_at) / RFU IRGQ (11745062_a_at) / Fold change /veh IRGQ (11745062_a_at) / RFU FAM174B (11720279_a_at) / Fold change /veh FAM174B (11720279_a_at) / RFU TMPRSS4 (11748680_a_at) / Fold change /veh TMPRSS4 (11748680_a_at) / RFU FAM212B (11763350_a_at) / Fold change /veh FAM212B (11763350_a_at) / RFU PLEKHG5 (11743358_a_at) / Fold change /veh PLEKHG5 (11743358_a_at) / RFU ZSCAN30 (11745921_a_at) / Fold change /veh ZSCAN30 (11745921_a_at) / RFU CMKLR1 (11741424_a_at) / Fold change /veh CMKLR1 (11741424_a_at) / RFU LOC101060620 /// MAPK8IP1 (11723275_at) / Fold change /veh LOC101060620 /// MAPK8IP1 (11723275_at) / RFU SPTSSB (11747773_x_at) / Fold change /veh SPTSSB (11747773_x_at) / RFU PRSS12 (11739890_at) / Fold change /veh PRSS12 (11739890_at) / RFU BIN1 (11741810_x_at) / Fold change /veh BIN1 (11741810_x_at) / RFU WNT11 (11732464_a_at) / Fold change /veh WNT11 (11732464_a_at) / RFU C10orf10 (11716521_a_at) / Fold change /veh C10orf10 (11716521_a_at) / RFU C5orf56 (11738089_at) / Fold change /veh C5orf56 (11738089_at) / RFU CYB561 (11721691_x_at) / Fold change /veh CYB561 (11721691_x_at) / RFU ANKRD19P (11752326_a_at) / Fold change /veh ANKRD19P (11752326_a_at) / RFU OR2T12 /// OR2T33 /// OR2T8 (11738714_s_at) / Fold change /veh OR2T12 /// OR2T33 /// OR2T8 (11738714_s_at) / RFU VCAN (11748164_a_at) / Fold change /veh VCAN (11748164_a_at) / RFU JSRP1 (11732532_at) / Fold change /veh JSRP1 (11732532_at) / RFU KRTAP10-11 (11738290_x_at) / Fold change /veh KRTAP10-11 (11738290_x_at) / RFU MYO3A (11730013_a_at) / Fold change /veh MYO3A (11730013_a_at) / RFU EBF3 (11725865_a_at) / Fold change /veh EBF3 (11725865_a_at) / RFU CAMK2N1 (11719241_x_at) / Fold change /veh CAMK2N1 (11719241_x_at) / RFU C5orf56 (11738088_a_at) / Fold change /veh C5orf56 (11738088_a_at) / RFU OLFML3 (11715873_a_at) / Fold change /veh OLFML3 (11715873_a_at) / RFU LOC100653217 /// NTM (11731650_a_at) / Fold change /veh LOC100653217 /// NTM (11731650_a_at) / RFU MAPK11 (11762145_a_at) / Fold change /veh MAPK11 (11762145_a_at) / RFU FIZ1 (11724087_x_at) / Fold change /veh FIZ1 (11724087_x_at) / RFU OASL (11726364_x_at) / Fold change /veh OASL (11726364_x_at) / RFU SOX15 (11748057_x_at) / Fold change /veh SOX15 (11748057_x_at) / RFU CD79A (11719716_a_at) / Fold change /veh CD79A (11719716_a_at) / RFU HIST1H1D (11736915_at) / Fold change /veh HIST1H1D (11736915_at) / RFU CASKIN2 (11723855_a_at) / Fold change /veh CASKIN2 (11723855_a_at) / RFU LOC730098 (11760151_x_at) / Fold change /veh LOC730098 (11760151_x_at) / RFU OR4N2 (11742367_at) / Fold change /veh OR4N2 (11742367_at) / RFU PRRT2 (11749266_a_at) / Fold change /veh PRRT2 (11749266_a_at) / RFU SNX32 (11753110_a_at) / Fold change /veh SNX32 (11753110_a_at) / RFU CDHR5 (11726645_a_at) / Fold change /veh CDHR5 (11726645_a_at) / RFU RCAN1 (11760418_a_at) / Fold change /veh RCAN1 (11760418_a_at) / RFU FAM167A (11723789_a_at) / Fold change /veh FAM167A (11723789_a_at) / RFU FAM26E (11764081_at) / Fold change /veh FAM26E (11764081_at) / RFU ISYNA1 (11749810_s_at) / Fold change /veh ISYNA1 (11749810_s_at) / RFU ACY1 (11761880_at) / Fold change /veh ACY1 (11761880_at) / RFU 11764098_at / Fold change /veh 11764098_at / RFU SAMD14 (11745864_x_at) / Fold change /veh SAMD14 (11745864_x_at) / RFU NPB (11741838_a_at) / Fold change /veh NPB (11741838_a_at) / RFU TMPRSS6 (11731388_a_at) / Fold change /veh TMPRSS6 (11731388_a_at) / RFU KRTAP10-2 (11738614_at) / Fold change /veh KRTAP10-2 (11738614_at) / RFU ARHGAP8 /// PRR5-ARHGAP8 (11727945_x_at) / Fold change /veh ARHGAP8 /// PRR5-ARHGAP8 (11727945_x_at) / RFU KRTAP5-7 /// NADSYN1 (11734609_at) / Fold change /veh KRTAP5-7 /// NADSYN1 (11734609_at) / RFU RASL12 (11751679_a_at) / Fold change /veh RASL12 (11751679_a_at) / RFU CDKN2B (11736163_a_at) / Fold change /veh CDKN2B (11736163_a_at) / RFU PRF1 (11729649_at) / Fold change /veh PRF1 (11729649_at) / RFU, ZNF638 /// ZNF638-IT1 / Fold change vs veh, ZNF638 /// ZNF638-IT1 / RFU, PANK3 / Fold change vs veh, PANK3 / RFU, SH3YL1 / Fold change vs veh, SH3YL1 / RFU, ZEB2 / Fold change vs veh, ZEB2 / RFU, NRIP1 / Fold change vs veh, NRIP1 / RFU, PTTG1IP / Fold change vs veh, PTTG1IP / RFU, CAPN2 / Fold change vs veh, CAPN2 / RFU, MED14 / Fold change vs veh, MED14 / RFU, SNORA58 / Fold change vs veh, SNORA58 / RFU, C1orf63 / Fold change vs veh, C1orf63 / RFU, LRRFIP1 / Fold change vs veh, LRRFIP1 / RFU, NDUFAF7 / Fold change vs veh, NDUFAF7 / RFU, SLC12A2 / Fold change vs veh, SLC12A2 / RFU, IBTK / Fold change vs veh, IBTK / RFU, ESF1 / Fold change vs veh, ESF1 / Fold change vs veh, TMEM50B / RFU, TAOK1 / Fold change vs veh, TAOK1 / RFU, ACBD3 / Fold change vs veh, ACBD3 / RFU, TMA16 / Fold change vs veh, TMA16 / RFU, RWDD3 / Fold change vs veh, RWDD3 / RFU, BCAT1 / Fold change vs veh, BCAT1 / RFU, EDEM3 / Fold change vs veh, EDEM3 / RFU, TMEM33 / Fold change vs veh, TMEM33 / RFU, WDR75 / Fold change vs veh, WDR75 / RFU, AHCTF1 / Fold change vs veh, AHCTF1 / RFU, TFRC / Fold change vs veh, TFRC / RFU, ZDHHC17 / Fold change vs veh, ZDHHC17 / RFU, NOM1 / Fold change vs veh, NOM1 / RFU, ARL8B / Fold change vs veh, ARL8B / RFU, ZBTB11 / Fold change vs veh, ZBTB11 / RFU, TAMM41 / Fold change vs veh, TAMM41 / RFU, KIAA1704 /// LOC100996395 / Fold change vs veh, KIAA1704 /// LOC100996395 / RFU, ING1 / Fold change vs veh, ING1 / RFU, TRMT61B / Fold change vs veh, TRMT61B / RFU, FUBP3 / Fold change vs veh, FUBP3 / RFU, TP53 / Fold change vs veh, TP53 / RFU, TNKS2 / Fold change vs veh, TNKS2 / RFU, ZFP14 / Fold change vs veh, ZFP14 / RFU, ACTR2 / Fold change vs veh, ACTR2 / RFU, PPP3R1 / Fold change vs veh, PPP3R1 / RFU, PIK3R1 / Fold change vs veh, PIK3R1 / RFU, HNRNPA1 / Fold change vs veh, HNRNPA1 / RFU, RNF170 / Fold change vs veh, RNF170 / RFU, ZNF28 / Fold change vs veh, ZNF28 / RFU, RNGTT / Fold change vs veh, RNGTT / RFU, OGT / Fold change vs veh, OGT / RFU, BRD1 / Fold change vs veh, BRD1 / RFU, MARS / Fold change vs veh, MARS / RFU, ZNF655 / Fold change vs veh, ZNF655 / RFU, FAHD1 / Fold change vs veh, FAHD1 / RFU, BDP1 / Fold change vs veh, BDP1 / RFU, LRRCC1 / Fold change vs veh, LRRCC1 / RFU, ARID1A / Fold change vs veh, ARID1A / RFU, ZNF146 / Fold change vs veh, ZNF146 / RFU, ZNF330 / Fold change vs veh, ZNF330 / RFU, GPN3 / Fold change vs veh, GPN3 / RFU, C9orf123 / Fold change vs veh, C9orf123 / RFU, N4BP2L2 / Fold change vs veh, N4BP2L2 / RFU, ARFIP1 / Fold change vs veh, ARFIP1 / RFU, FAM179B / Fold change vs veh, FAM179B / RFU, BCL10 / Fold change vs veh, BCL10 / RFU, UHRF1BP1L / Fold change vs veh, UHRF1BP1L / RFU, BET1 / Fold change vs veh, BET1 / RFU, CNOT2 / Fold change vs veh, CNOT2 / RFU, ZNF268 / Fold change vs veh, ZNF268 / Fold change vs veh, ZNF507 / RFU, DGCR2 / Fold change vs veh, DGCR2 / RFU, WDSUB1 / Fold change vs veh, WDSUB1 / Fold change vs veh, HSP90B1 /// MIR3652 / RFU, ADSS / Fold change vs veh, ADSS / RFU, GK / Fold change vs veh, GK / RFU, ZNF148 / Fold change vs veh, ZNF148 / RFU, TAF9 / Fold change vs veh, TAF9 / RFU, SLC1A5 / Fold change vs veh, SLC1A5 / RFU, SLMO2 / Fold change vs veh, SLMO2 / RFU, ABCC4 / Fold change vs veh, ABCC4 / RFU, LOC101060439 /// RAP1B / Fold change vs veh, LOC101060439 /// RAP1B / RFU, RFX7 / Fold change vs veh, RFX7 / RFU, GTPBP10 / Fold change vs veh, GTPBP10 / RFU, CNEP1R1 / Fold change vs veh, CNEP1R1 / RFU, BIVM-ERCC5 /// ERCC5 / Fold change vs veh, BIVM-ERCC5 /// ERCC5 / RFU, ILF3 / Fold change vs veh, ILF3 / RFU 11762660_at / Fold change /veh 11762660_at / RFU VCAN (11757783_s_at) / Fold change /veh VCAN (11757783_s_at) / RFU DDX43 (11728927_at) / Fold change /veh DDX43 (11728927_at) / RFU KRT8 (11758188_x_at) / Fold change /veh KRT8 (11758188_x_at) / RFU NKD1 (11759106_at) / Fold change /veh NKD1 (11759106_at) / RFU SRD5A1 (11742802_a_at) / Fold change /veh SRD5A1 (11742802_a_at) / RFU TPSAB1 /// TPSB2 (11721975_s_at) / Fold change /veh TPSAB1 /// TPSB2 (11721975_s_at) / RFU GSTM3 (11746129_a_at) / Fold change /veh GSTM3 (11746129_a_at) / RFU IL23R (11737362_x_at) / Fold change /veh IL23R (11737362_x_at) / RFU TMEM51 (11727254_a_at) / Fold change /veh TMEM51 (11727254_a_at) / RFU PIWIL2 (11732686_x_at) / Fold change /veh PIWIL2 (11732686_x_at) / RFU ORM1 (11744905_x_at) / Fold change /veh ORM1 (11744905_x_at) / RFU CCDC152 (11743942_at) / Fold change /veh CCDC152 (11743942_at) / RFU ECM1 (11717891_a_at) / Fold change /veh ECM1 (11717891_a_at) / RFU IL23R (11748794_a_at) / Fold change /veh IL23R (11748794_a_at) / RFU TNFAIP8L3 (11732012_x_at) / Fold change /veh TNFAIP8L3 (11732012_x_at) / RFU MBOAT4 (11741988_at) / Fold change /veh MBOAT4 (11741988_at) / RFU 11764193_at / Fold change /veh 11764193_at / RFU TMEM53 (11763286_at) / Fold change /veh TMEM53 (11763286_at) / RFU MAGEB2 (11727129_at) / Fold change /veh MAGEB2 (11727129_at) / RFU TMEM200A (11744735_a_at) / Fold change /veh TMEM200A (11744735_a_at) / RFU CCDC152 (11751479_a_at) / Fold change /veh CCDC152 (11751479_a_at) / RFU FAM211A (11726209_a_at) / Fold change /veh FAM211A (11726209_a_at) / RFU RGS16 (11746705_a_at) / Fold change /veh RGS16 (11746705_a_at) / RFU VCAN (11755009_s_at) / Fold change /veh VCAN (11755009_s_at) / RFU RHOB (11743442_s_at) / Fold change /veh RHOB (11743442_s_at) / RFU RGS16 (11720943_a_at) / Fold change /veh RGS16 (11720943_a_at) / RFU RGS16 (11720944_at) / Fold change /veh RGS16 (11720944_at) / RFU, VPS4B / Fold change vs veh, VPS4B / RFU, CREB1 / Fold change vs veh, CREB1 / RFU, DNAJC13 / Fold change vs veh, DNAJC13 / RFU, GNAQ / Fold change vs veh, GNAQ / RFU, CDK5R1 / Fold change vs veh, CDK5R1 / RFU, ZRANB3 / Fold change vs veh, ZRANB3 / RFU, CUL4A / Fold change vs veh, CUL4A / RFU, CCNY / Fold change vs veh, CCNY / RFU, UFL1 / Fold change vs veh, UFL1 / RFU, COG3 / Fold change vs veh, COG3 / RFU, DIAPH2 / Fold change vs veh, DIAPH2 / RFU, SKA2 / Fold change vs veh, SKA2 / RFU, AFF3 / Fold change vs veh, AFF3 / RFU, LMF1 / Fold change vs veh, LMF1 / RFU, IPO11 / Fold change vs veh, IPO11 / RFU, DFFB / Fold change vs veh, DFFB / RFU, FOXP1 / Fold change vs veh, FOXP1 / RFU, CARD8 / Fold change vs veh, CARD8 / RFU, STRN3 / Fold change vs veh, STRN3 / RFU, ADK / Fold change vs veh, ADK / RFU, RASSF2 / Fold change vs veh, RASSF2 / RFU, WIPF1 / Fold change vs veh, WIPF1 / RFU, LARP1B / Fold change vs veh, LARP1B / RFU, RASA1 / Fold change vs veh, RASA1 / RFU, RB1 / Fold change vs veh, RB1 / RFU, PPFIA1 / Fold change vs veh, PPFIA1 / RFU, MAT2A / Fold change vs veh, MAT2A / RFU, CCT5 / Fold change vs veh, CCT5 / RFU, WDR92 / Fold change vs veh, WDR92 / RFU, CUX1 / Fold change vs veh, CUX1 / RFU, TTC7A / Fold change vs veh, TTC7A / RFU, TMEM135 / Fold change vs veh, TMEM135 / RFU, DEPTOR / Fold change vs veh, DEPTOR / RFU, CPM / Fold change vs veh, CPM / RFU, DNAJB6 / Fold change vs veh, DNAJB6 / RFU, CACNA2D3 / Fold change vs veh, CACNA2D3 / RFU, DTX4 / Fold change vs veh, DTX4 / RFU, TFCP2 / Fold change vs veh, TFCP2 / RFU, GMCL1 /// GMCL1P1 / Fold change vs veh, GMCL1 /// GMCL1P1 / RFU, AEBP2 / Fold change vs veh, AEBP2 / RFU, SNHG1 /// SNORD22 /// SNORD25 /// SNORD26 /// SNORD27 /// SNORD28 /// SNORD29 /// SNORD31 / Fold change vs veh, SNHG1 /// SNORD22 /// SNORD25 /// SNORD26 /// SNORD27 /// SNORD28 /// SNORD29 /// SNORD31 / Fold change (Aza/veh), C12orf56 (ProbeSet 11735607_a_at) / Fold change (ACY-1035/veh), C12orf56 (ProbeSet 11735607_a_at) / Fold change (Aza/veh), FGFR1OP (ProbeSet 11751329_s_at) / Fold change (ACY-1035/veh), FGFR1OP (ProbeSet 11751329_s_at) / Fold change (Aza/veh), VPS36 (ProbeSet 11739960_a_at) / Fold change (ACY-1035/veh), VPS36 (ProbeSet 11739960_a_at) / RFU SYPL1 (11715823_x_at) / Fold change /veh SYPL1 (11715823_x_at) / RFU IGFBP7 (11715501_s_at) / Fold change /veh IGFBP7 (11715501_s_at) / RFU REEP3 (11722064_at) / Fold change /veh REEP3 (11722064_at) / RFU IGLL1 (11728026_x_at) / Fold change /veh IGLL1 (11728026_x_at): dose or concentration left out as unconfirmed. The note with it: MV-4-11 cells, 48 hours.

In the case of `Nc1ccc(-c2cccs2)cc1NC(=O)c1ccc2c(c1)cc(C1CC1)n2CCN1CCOCC1` [ACY-1035], the “Fold change /veh ID3 (11757404_x_at)” value amounted to 1.00.

The record behind these values is paper PMC5218480 (PLoS ONE, 2017).
